Assay results: ChEMBL document CHEMBL1136513, “Evaluation of vinylsulfamides as sulfhydryl selective alkylation reagents in protein modification” (Bioorg Med Chem Lett, 2003)

Assays:
[1] = Half-life period at pH 7.2 in the presence of five times more cysteine; assay type: ADME
[2] = Half-life period at pH 8.1 in the presence of five times more cysteine; assay type: ADME
[3] = Half-life period at pH 8.1 in the presence of five times more lysine; assay type: ADME
[4] = Half-life period at pH 9.2 in the presence of five times more cysteine; ND1 indicates reaction rate was too quick to determine; assay type: ADME
[5] = Half-life period at pH 9.2 in the presence of five times more lysine; assay type: ADME
[6] = Half-life period at pH 7.2 in the presence of five times more lysine; ND2 indicates reaction rate was too slow to measure

C=CS(=O)(=O)NCc1ccc([N+](=O)[O-])cc1
half-life [1]: 1.28 h
half-life [2]: 0.45 h
half-life [3]: 178 h
T1/2 [4]: Reaction rate too quick
half-life [5]: 29.6 h
T1/2 [6]: Reaction rate too slow
